{"source": "paper PMC10031741", "about": "“A D-cysteine desulfhydrase, SlDCD2, participates in tomato fruit ripening by modulating ROS homoeostasis and ethylene biosynthesis” (Horticulture Research, 2023)", "biological_target": "T1, SlDCD2 (Solanum lycopersicum, UniProt A0A3Q7EA38)", "T1 construct": "gene LOC101256906; tag removal not mentioned", "T1 sequence (A0A3Q7EA38 1-442)": "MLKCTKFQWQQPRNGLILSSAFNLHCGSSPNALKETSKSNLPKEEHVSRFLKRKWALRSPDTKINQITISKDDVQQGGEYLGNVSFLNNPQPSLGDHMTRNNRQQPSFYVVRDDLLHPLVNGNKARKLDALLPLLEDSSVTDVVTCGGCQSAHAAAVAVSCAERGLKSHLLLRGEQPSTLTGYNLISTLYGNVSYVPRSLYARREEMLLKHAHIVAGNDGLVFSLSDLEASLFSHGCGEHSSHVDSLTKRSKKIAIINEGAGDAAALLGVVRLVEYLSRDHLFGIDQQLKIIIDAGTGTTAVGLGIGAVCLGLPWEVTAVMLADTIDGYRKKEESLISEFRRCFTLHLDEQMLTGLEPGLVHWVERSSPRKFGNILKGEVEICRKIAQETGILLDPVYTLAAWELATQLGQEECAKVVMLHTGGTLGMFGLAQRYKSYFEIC", "experiment": "H2S production, methylene blue at […] nm", "assay_type": "biochemical", "settings": "H2S release; assay as in cited reference"}
{"smiles": "N[C@H](CS)C(=O)O", "note": "[D-cysteine]", "values": [{"measurement": "H2S production, methylene blue at 670 nm", "result": "Using D-cysteine as the substrate, the enzymatic activity of SlDCD2 was evaluated"}]}
